{
  "source": "paper PMC12299554",
  "about": "(Pharmaceuticals, 2025)",
  "key": {"[1]": {"target": "T1, AChE (EC 3.1.1.7, Electrophorus electricus, Type V-S) (Electrophorus electricus, UniProt O42275)", "T1 construct": "purchased Sigma-Aldrich Type V-S", "T1 sequence (O42275 24-633)": "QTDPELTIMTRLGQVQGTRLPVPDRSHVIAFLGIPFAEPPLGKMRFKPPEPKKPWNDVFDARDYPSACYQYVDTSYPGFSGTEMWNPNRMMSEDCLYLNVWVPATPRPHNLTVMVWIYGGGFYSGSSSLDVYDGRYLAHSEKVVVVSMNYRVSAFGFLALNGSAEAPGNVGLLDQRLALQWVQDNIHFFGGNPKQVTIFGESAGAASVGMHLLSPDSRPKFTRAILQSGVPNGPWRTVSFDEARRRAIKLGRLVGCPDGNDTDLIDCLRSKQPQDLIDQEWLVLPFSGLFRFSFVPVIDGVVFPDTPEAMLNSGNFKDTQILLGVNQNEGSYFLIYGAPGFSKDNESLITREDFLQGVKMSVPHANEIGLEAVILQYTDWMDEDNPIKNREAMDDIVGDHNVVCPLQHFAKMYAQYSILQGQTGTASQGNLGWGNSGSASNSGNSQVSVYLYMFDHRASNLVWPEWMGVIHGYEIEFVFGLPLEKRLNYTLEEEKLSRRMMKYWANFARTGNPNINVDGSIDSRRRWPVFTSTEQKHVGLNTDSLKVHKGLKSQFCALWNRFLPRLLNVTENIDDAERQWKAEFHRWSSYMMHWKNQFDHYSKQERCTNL", "assay": "biochemical", "settings": "mean of three measurements ± standard deviation", "procedure": "All measurements were conducted in triplicate. […] The selectivity index is calculated as IC50(AChE)/IC50(BChE)."}, "[2]": {"target": "BChE (EC 3.1.1.8, equine serum) (Equus caballus, UniProt P81908)", "sequence (P81908 whole entry)": "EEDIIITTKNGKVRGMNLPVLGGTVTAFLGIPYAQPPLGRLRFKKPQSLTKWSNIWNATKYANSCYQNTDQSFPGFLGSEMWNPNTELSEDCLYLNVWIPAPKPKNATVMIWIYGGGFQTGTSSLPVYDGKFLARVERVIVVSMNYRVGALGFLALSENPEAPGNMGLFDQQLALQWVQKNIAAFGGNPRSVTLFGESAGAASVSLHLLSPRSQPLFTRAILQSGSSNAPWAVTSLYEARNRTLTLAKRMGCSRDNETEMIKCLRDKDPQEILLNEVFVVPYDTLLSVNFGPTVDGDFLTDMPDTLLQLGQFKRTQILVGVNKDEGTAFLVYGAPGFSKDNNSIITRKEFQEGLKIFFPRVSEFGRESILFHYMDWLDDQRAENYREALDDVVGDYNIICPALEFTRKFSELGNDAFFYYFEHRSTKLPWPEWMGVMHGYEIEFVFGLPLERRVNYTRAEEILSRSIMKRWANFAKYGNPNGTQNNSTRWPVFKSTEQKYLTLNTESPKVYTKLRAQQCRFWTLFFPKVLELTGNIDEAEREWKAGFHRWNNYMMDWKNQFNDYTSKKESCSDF", "assay": "biochemical"}, "PBMCs": {"test_system": "PBMCs", "assay": "Cell viability of LPS-stimulated PBMCs (CellTiter-Glo)", "type": "cell-based", "settings": "human PBMCs, 24 h; three-fold dilutions starting at 100 µM"}, "[3]": {"test_system": "LPS-stimulated TNF-α production in human peripheral blood mononuclear cells (PBMCs)", "assay": "Inhibition of LPS-stimulated TNF-α production in PBMCs (ELISA)", "settings": "for Inhibition of LPS-stimulated TNF-α production (in words): human PBMCs, three-fold dilutions starting at 100 µM; for IC50: Homo sapiens, PBMC, 24 h, read-out: IC50 of LPS-stimulated TNF-α production"}},
  "data": [
    {"smiles": "COc1ccc(Cn2n[n+](Cc3ccc(Cl)cc3)c3ccc4sccc4c32)cc1", "note": "[Compound 13, 3-(4-chlorobenzyl)-1-(4-methoxybenzyl)-1H-thieno[3′,2′:3,4]benzo[1,2-d][1,2,3]triazol-3-ium bromide]", "values": [
      {"measurement": "IC50", "setting": "[1]", "value": "7.4 ± 0.94", "unit": "µM"},
      {"measurement": "IC50", "setting": "[2]", "value": "4.05 ± 1.05", "unit": "µM"}
    ]},
    {"smiles": "Fc1cccc(Cn2n[n+](Cc3ccc(Cl)cc3)c3ccc4sccc4c32)c1", "note": "[Compound 10, 3-(4-chlorobenzyl)-1-(3-fluorobenzyl)-1H-thieno[3′,2′:3,4]benzo[1,2-d][1,2,3]triazol-3-ium bromide]", "values": [
      {"measurement": "IC50", "setting": "[1]", "value": "9.96 ± 0.42", "unit": "µM"},
      {"measurement": "IC50", "setting": "[2]", "value": "2.45 ± 0.43", "unit": "µM"}
    ]},
    {"smiles": "Cc1cccc(Cn2n[n+](Cc3ccc(Cl)cc3)c3ccc4sccc4c32)c1", "note": "[Compound 11, 3-(4-chlorobenzyl)-1-(3-methylbenzyl)-1H-thieno[3′,2′:3,4]benzo[1,2-d][1,2,3]triazol-3-ium bromide]", "values": [
      {"measurement": "IC50", "setting": "[1]", "value": "6.23 ± 0.58", "unit": "µM"},
      {"measurement": "IC50", "setting": "[2]", "value": "1.11 ± 0.77", "unit": "µM"}
    ]},
    {"smiles": "CC=Cn1n[n+](Cc2ccccc2)c2ccc3sccc3c21", "note": "[Compound 15, 3-benzyl-1-(prop-1-en-1-yl)-1H-thieno[3′,2′:3,4]benzo[1,2-d][1,2,3]triazol-3-ium bromide]", "values": [
      {"measurement": "IC50", "setting": "[1]", "value": "3.62 ± 0.42", "unit": "µM"},
      {"measurement": "IC50", "setting": "[2]", "value": "0.732 ± 0.137", "unit": "µM"}
    ]},
    {"smiles": "Clc1cccc(Cn2n[n+](Cc3ccccc3)c3ccc4sccc4c32)c1.[Br-]", "note": "[Compound 4, 3-benzyl-1-(3-chlorobenzyl)-1H-thieno[3′,2′:3,4]benzo[1,2-d][1,2,3]triazol-3-ium bromide]", "values": [
      {"measurement": "Effect on cell viability (in words)", "setting": "PBMCs", "value": "decreased cell viability"},
      {"measurement": "Inhibition of LPS-stimulated TNF-α production (in words)", "setting": "[3]", "value": "did not inhibit TNF-α production"}
    ]},
    {"smiles": "Clc1ccc(C[n+]2nn(Cc3cccc(Cl)c3)c3c4ccsc4ccc32)cc1.[Br-]", "note": "[Compound 6, 1-(3-chlorobenzyl)-3-(4-chlorobenzyl)-1H-thieno[3′,2′:3,4]benzo[1,2-d][1,2,3]triazol-3-ium bromide]", "values": [
      {"measurement": "IC50", "setting": "[1]", "value": "12.9 ± 0.87", "unit": "µM"},
      {"measurement": "IC50", "setting": "[2]", "value": "0.96 ± 0.14", "unit": "µM"},
      {"measurement": "Inhibition of LPS-stimulated TNF-α production (in words)", "setting": "[3]", "value": "did not inhibit TNF-α production at any tested concentrations"}
    ]},
    {"smiles": "Clc1ccc(Cn2n[n+](Cc3ccc(Cl)cc3)c3ccc4sccc4c32)cc1.[Br-]", "note": "[Compound 2, 1,3-bis(4-chlorobenzyl)-1H-thieno[3′,2′:3,4]benzo[1,2-d][1,2,3]triazol-3-ium bromide]", "values": [
      {"measurement": "IC50", "setting": "[1]", "value": "10.7 ± 1.46", "unit": "µM"},
      {"measurement": "Effect on cell viability (in words)", "setting": "PBMCs", "value": "decreased cell viability"},
      {"measurement": "IC50", "setting": "[2]", "value": "4.99 ± 1.1", "unit": "µM"},
      {"measurement": "Inhibition of LPS-stimulated TNF-α production (in words)", "setting": "[3]", "value": "did not inhibit TNF-α production"}
    ]},
    {"smiles": "Cc1ccc(C[n+]2nn(Cc3cccc(Cl)c3)c3c4ccsc4ccc32)cc1.[Br-]", "note": "[Compound 5, 1-(3-chlorobenzyl)-3-(4-methylbenzyl)-1H-thieno[3′,2′:3,4]benzo[1,2-d][1,2,3]triazol-3-ium bromide]", "values": [
      {"measurement": "IC50", "setting": "[1]", "value": "55.6 ± 2.36", "unit": "µM"},
      {"measurement": "Effect on cell viability (in words)", "setting": "PBMCs", "value": "decreased cell viability"},
      {"measurement": "IC50", "setting": "[2]", "value": "8.13 ± 0.83", "unit": "µM"},
      {"measurement": "Inhibition of LPS-stimulated TNF-α production (in words)", "setting": "[3]", "value": "did not inhibit TNF-α production"}
    ]},
    {"smiles": "O=[N+]([O-])c1ccc(C[n+]2nn(Cc3cccc(Cl)c3)c3c4ccsc4ccc32)cc1.[Br-]", "note": "[Compound 7, 1-(3-chlorobenzyl)-3-(4-nitrobenzyl)-1H-thieno[3′,2′:3,4]benzo[1,2-d][1,2,3]triazol-3-ium bromide]", "values": [
      {"measurement": "IC50", "setting": "[1]", "value": "11.4 ± 0.39", "unit": "µM"},
      {"measurement": "IC50", "setting": "[2]", "value": "10 ± 1.64", "unit": "µM"},
      {"measurement": "Inhibition of LPS-stimulated TNF-α production (in words)", "setting": "[3]", "value": "did not inhibit TNF-α production at any tested concentrations"}
    ]},
    {"smiles": "Cc1cc2c(ccc3c2n(Cc2ccc(Cl)cc2)n[n+]3Cc2ccc(Cl)cc2)s1.[Br-]", "note": "[Compound 3, 1,3-bis(4-chlorobenzyl)-7-methyl-1H-thieno[3′,2′:3,4]benzo[1,2-d][1,2,3]triazol-3-ium bromide]", "values": [
      {"measurement": "IC50", "setting": "[1]", "value": "8.89 ± 3.26", "unit": "µM"},
      {"measurement": "IC50", "setting": "[2]", "value": "7.6 ± 0.82", "unit": "µM"},
      {"measurement": "Inhibition of LPS-stimulated TNF-α production (in words)", "setting": "[3]", "value": "did not inhibit TNF-α production at any tested concentrations"}
    ]},
    {"smiles": "C[C@@H]1C[C@H]2[C@@H]3CCC4=CC(=O)C=C[C@]4(C)[C@@]3(F)[C@@H](O)C[C@]2(C)[C@@]1(O)C(=O)CO", "note": "[dexamethasone, reference compound]", "values": [
      {"measurement": "IC50", "setting": "[3]", "value": 0.0046, "unit": "µM"}
    ]},
    {"smiles": "Fc1cccc(Cn2n[n+](Cc3ccccc3)c3ccc4sccc4c32)c1.[Br-]", "note": "[Compound 8, 3-benzyl-1-(3-fluorobenzyl)-1H-thieno[3′,2′:3,4]benzo[1,2-d][1,2,3]triazol-3-ium bromide]", "values": [
      {"measurement": "IC50", "setting": "[1]", "value": "22.2 ± 2.83", "unit": "µM"},
      {"measurement": "Effect on cell viability (in words)", "setting": "PBMCs", "value": "decreased cell viability"},
      {"measurement": "IC50", "setting": "[2]", "value": "4.52 ± 0.17", "unit": "µM"},
      {"measurement": "Inhibition of LPS-stimulated TNF-α production (in words)", "setting": "[3]", "value": "did not inhibit TNF-α production"}
    ]},
    {"smiles": "Cc1ccc(C[n+]2nn(Cc3cccc(F)c3)c3c4ccsc4ccc32)cc1.[Br-]", "note": "[Compound 9, 1-(3-fluorobenzyl)-3-(4-methylbenzyl)-1H-thieno[3′,2′:3,4]benzo[1,2-d][1,2,3]triazol-3-ium bromide]", "values": [
      {"measurement": "IC50", "setting": "[1]", "value": "4.8 ± 0.71", "unit": "µM"},
      {"measurement": "Effect on cell viability (in words)", "setting": "PBMCs", "value": "affected cell viability at the three highest concentrations tested"},
      {"measurement": "IC50", "setting": "[2]", "value": "0.363 ± 0.038", "unit": "µM"},
      {"measurement": "IC50", "setting": "[3]", "value": 0.66, "unit": "µM"}
    ]},
    {"smiles": "Cc1ccc(C[n+]2nn(Cc3ccc(Cl)cc3)c3c4ccsc4ccc32)cc1.[Br-]", "note": "[Compound 1, 1-(4-chlorobenzyl)-3-(4-methylbenzyl)-1H-thieno[3′,2′:3,4]benzo[1,2-d][1,2,3]triazol-3-ium bromide]", "values": [
      {"measurement": "IC50", "setting": "[1]", "value": "12.7 ± 1.85", "unit": "µM"},
      {"measurement": "Effect on cell viability (in words)", "setting": "PBMCs", "value": "decreased cell viability"},
      {"measurement": "IC50", "setting": "[2]", "value": "2.55 ± 0.58", "unit": "µM"},
      {"measurement": "Inhibition of LPS-stimulated TNF-α production (in words)", "setting": "[3]", "value": "did not inhibit TNF-α production"}
    ]},
    {"smiles": "C=CCn1n[n+](Cc2ccccc2)c2ccc3sccc3c21", "note": "[Compound 14, 1-allyl-3-benzyl-1H-thieno[3′,2′:3,4]benzo[1,2-d][1,2,3]triazol-3-ium bromide]", "values": [
      {"measurement": "IC50", "setting": "[1]", "value": "2.13 ± 0.13", "unit": "µM"},
      {"measurement": "IC50", "setting": "[2]", "value": "0.098 ± 0.018", "unit": "µM"}
    ]},
    {"smiles": "COc1ccc(Cn2n[n+](Cc3ccc(C)cc3)c3ccc4sccc4c32)cc1", "note": "[Compound 12, 1-(4-methoxybenzyl)-3-(4-methylbenzyl)-1H-thieno[3′,2′:3,4]benzo[1,2-d][1,2,3]triazol-3-ium bromide]", "values": [
      {"measurement": "IC50", "setting": "[1]", "value": "11.8 ± 2.15", "unit": "µM"},
      {"measurement": "IC50", "setting": "[2]", "value": "3.98 ± 1.25", "unit": "µM"}
    ]}
  ]
}
